{
  "source": "PubChem BioAssay (NCI)",
  "test_system": "MDA-MB-468 breast",
  "test": "inhibition of tumour cell growth, NCI panel, 48 h",
  "note": "“And” between values parts separate entries of the source, which are not always exact repeats. Identical values can stand only once.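 Each compound was tested at five concentrations against cells in 96-well plates for 48 hours. Abbreviation: GI50, concentration required for 50% inhibition of growth. TGI marks complete inhibition of growth.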",
  "data": [
    {"smiles": "Cc1ccc2oc(=O)cc(C3c4ccc([nH]4)C(c4cc(=O)oc5ccc(C)cc45)c4ccc([nH]4)C(c4cc(=O)oc5ccc(C)cc45)c4ccc([nH]4)C(c4cc(=O)oc5ccc(C)cc45)c4ccc3[nH]4)c2c1", "note": "(stereo unspecified)", "values": [
      {"measurement": "GI50", "result": 0.0344, "unit": "µM"},
      {"measurement": "TGI", "result": 1.86, "unit": "µM"}
    ]},
    {"smiles": "COc1cc2c(cc1-c1c(C)noc1C)ncc1[nH]c(=O)n([C@H](C)c3ccccn3)c12", "values": [
      {"measurement": "GI50", "result": 0.445, "unit": "µM"},
      {"measurement": "TGI", "result": "> 36.8", "unit": "µM"}
    ]},
    {"smiles": "Clc1ccc2c(NCCN3CCN(c4ccnc(N5CCCC5)n4)CC3)ccnc2c1", "values": [
      {"measurement": "GI50", "result": 2.05, "unit": "µM"},
      {"measurement": "TGI", "result": 5.09, "unit": "µM"}
    ]},
    {"smiles": "CCCCc1oc2ccccc2c1C(=O)c1cc(I)c(OCCN(CC)CC)c(I)c1", "values": [
      {"measurement": "GI50", "result": 1.49, "unit": "µM"},
      {"measurement": "TGI", "result": 3.12, "unit": "µM"}
    ]},
    {"smiles": "COc1ccc(Cn2cc3c(c2-c2ccccc2)CCc2cncnc2-3)cc1", "values": [
      {"measurement": "GI50", "result": 3.25, "unit": "µM"},
      {"measurement": "TGI", "result": 11, "unit": "µM"}
    ]},
    {"smiles": "CC(=O)O[C@@H]1C(=O)N(c2cnccn2)[C@H]1c1ccccc1[N+](=O)[O-]", "values": [
      {"measurement": "GI50", "result": 0.376, "unit": "µM"},
      {"measurement": "TGI", "result": 4.05, "unit": "µM"}
    ]},
    {"smiles": "COc1cc(C(=O)/C=C/c2c(-c3cccs3)nc3ccccn23)cc(OC)c1OC", "values": [
      {"measurement": "GI50", "result": 1.72, "unit": "µM"},
      {"measurement": "TGI", "result": 3.4, "unit": "µM"}
    ]},
    {"smiles": "CO[C@H]1/C=C/C[C@H](C)[C@@H](C)S(=O)(=O)NC(=O)c2ccc3c(c2)N(C[C@@H]2CC[C@H]21)C[C@@]1(CCCc2cc(Cl)ccc21)CO3", "values": [
      {"measurement": "GI50", "result": 0.166, "unit": "µM"},
      {"measurement": "TGI", "result": 0.55, "unit": "µM"}
    ]},
    {"smiles": "CO[C@@]12[C@H](COC(N)=O)C3=C(C(=O)C(C)=C(N)C3=O)N1C[C@@H]1N[C@@H]12", "values": [
      {"measurement": "GI50", "result": "0.241 µM and 1.01 µM"},
      {"measurement": "TGI", "result": "1.3 µM and 4.9 µM"}
    ]},
    {"smiles": "CCN1CCN(c2nc(C)cc(N(CCCNc3ccnc4cc(Cl)ccc34)Cc3ccco3)n2)CC1", "values": [
      {"measurement": "GI50", "result": 2.2, "unit": "µM"},
      {"measurement": "TGI", "result": 5.28, "unit": "µM"}
    ]},
    {"smiles": "Cc1sc2c(c1C)C(c1ccc(Cl)cc1)=N[C@@H](CC(=O)Nc1ccc(O)cc1)c1nnc(C)n1-2", "values": [
      {"measurement": "GI50", "result": 0.212, "unit": "µM"},
      {"measurement": "TGI", "result": 17.8, "unit": "µM"}
    ]},
    {"smiles": "CN1CCN(c2ccc([N+](=O)[O-])c3no[n+]([O-])c23)CC1", "values": [
      {"measurement": "GI50", "result": 0.203, "unit": "µM"},
      {"measurement": "TGI", "result": 0.821, "unit": "µM"}
    ]},
    {"smiles": "Cc1cc(Cl)ccc1Nc1nc(C(F)(F)F)ccc1C(=O)N/N=C/c1ccc(N(C)C)cc1", "values": [
      {"measurement": "GI50", "result": 0.442, "unit": "µM"},
      {"measurement": "TGI", "result": 4.67, "unit": "µM"}
    ]},
    {"smiles": "O=C(NNc1nc2cc(F)cc(F)c2n2cccc12)c1cccnn1", "values": [
      {"measurement": "GI50", "result": "0.638 µM and 0.219 µM"},
      {"measurement": "TGI", "result": "2.43 µM and 1.47 µM"}
    ]},
    {"smiles": "c1cc(-c2cnn3nc(N4CCOCC4)ccc23)nc(NC2CC2)n1", "values": [
      {"measurement": "GI50", "result": 6.8, "unit": "µM"},
      {"measurement": "TGI", "result": 21, "unit": "µM"}
    ]},
    {"smiles": "O=C(Nc1cccc(Cl)c1)Nc1nc2ccc([N+](=O)[O-])cc2o1", "values": [
      {"measurement": "GI50", "result": 2.26, "unit": "µM"},
      {"measurement": "TGI", "result": 5.73, "unit": "µM"}
    ]},
    {"smiles": "CN(C)CCN1C(=O)c2cccc3c(-c4ccc5ncn(C6CCCCC6)c5c4)ccc(c23)C1=O", "values": [
      {"measurement": "GI50", "result": 1.74, "unit": "µM"},
      {"measurement": "TGI", "result": 4.33, "unit": "µM"}
    ]},
    {"smiles": "C=C1C(=O)O[C@H]2[C@H]1CC/C(COC(=O)NCc1cccc(OC)c1)=C\\CC[C@@]1(C)O[C@@H]21", "values": [
      {"measurement": "GI50", "result": 1.29, "unit": "µM"},
      {"measurement": "TGI", "result": 3.84, "unit": "µM"}
    ]},
    {"smiles": "COc1cc(C2c3cc4c(cc3OC(N3CCOCC3)C2C)OCO4)cc(OC)c1OC", "note": "(stereo unspecified)", "values": [
      {"measurement": "GI50", "result": 4.15, "unit": "µM"},
      {"measurement": "TGI", "result": "> 100", "unit": "µM"}
    ]},
    {"smiles": "ClC1=C(Cl)C(Cl)=C(Cl)C1=Cc1ccc(Cl)cc1Cl", "values": [
      {"measurement": "GI50", "result": 0.257, "unit": "µM"},
      {"measurement": "TGI", "result": 0.728, "unit": "µM"}
    ]},
    {"smiles": "c1ccc([P+](CCC[P+](c2ccccc2)(c2ccccc2)c2ccccc2)(c2ccccc2)c2ccccc2)cc1", "values": [
      {"measurement": "GI50", "result": 1.72, "unit": "µM"},
      {"measurement": "TGI", "result": 26.3, "unit": "µM"}
    ]},
    {"smiles": "COc1ccc(-c2cc3nccn3c(Nc3ncccc3C(N)=O)n2)cc1OC", "values": [
      {"measurement": "GI50", "result": "> 100", "unit": "µM"},
      {"measurement": "TGI", "result": "> 100", "unit": "µM"}
    ]},
    {"smiles": "Cc1[nH]ccc2cc3nc4ccccc4c3cc12", "values": [
      {"measurement": "GI50", "result": 1.91, "unit": "µM"},
      {"measurement": "TGI", "result": 9.09, "unit": "µM"}
    ]},
    {"smiles": "CCCCCCCCCCC(CN(CC)CC)C(O)c1ccccc1", "note": "(stereo unspecified)", "values": [
      {"measurement": "GI50", "result": 1.52, "unit": "µM"},
      {"measurement": "TGI", "result": 3.21, "unit": "µM"}
    ]},
    {"smiles": "C=C(C=O)[C@@H]1CC[C@]2(C(=O)O)CC[C@]3(C)C(CC[C@@H]4[C@@](C)(CCC#N)[C@H](C(=C)C=O)CC[C@]43C)[C@@H]12", "note": "(stereo partly specified)", "values": [
      {"measurement": "GI50", "result": 2.31, "unit": "µM"},
      {"measurement": "TGI", "result": 5.69, "unit": "µM"}
    ]},
    {"smiles": "CCOC(=O)c1cn2ncnc(Oc3ccc(NC(=O)NCCN(CC)CC)c(Cl)c3)c2c1C", "values": [
      {"measurement": "GI50", "result": 9.57, "unit": "µM"},
      {"measurement": "TGI", "result": 29, "unit": "µM"}
    ]},
    {"smiles": "Cc1ccc(C(=O)Nc2ccccc2C(=O)N/N=C(\\c2ccccc2)c2ccccn2)cc1", "values": [
      {"measurement": "GI50", "result": 0.266, "unit": "µM"},
      {"measurement": "TGI", "result": 2.94, "unit": "µM"}
    ]},
    {"smiles": "O=C1C(Cl)=C(Nc2ccc3c(c2NC2=C(Cl)C(=O)c4ccccc4C2=O)C(=O)c2ccccc2C3=O)C(=O)c2ccccc21", "values": [
      {"measurement": "GI50", "result": 1.35, "unit": "µM"},
      {"measurement": "TGI", "result": 3.85, "unit": "µM"}
    ]},
    {"smiles": "C#CCOc1cccc(Nc2ncnc3c2ncn3C2CCN(C(=O)CCl)C2)c1", "note": "(stereo unspecified)", "values": [
      {"measurement": "GI50", "result": 19.8, "unit": "µM"},
      {"measurement": "TGI", "result": 41, "unit": "µM"}
    ]},
    {"smiles": "CN(C)S(=O)(=O)c1cccc(-c2nc3sc4c(c3c(=O)[nH]2)CCCC4)c1", "values": [
      {"measurement": "GI50", "result": 8.92, "unit": "µM"},
      {"measurement": "TGI", "result": "> 100", "unit": "µM"}
    ]},
    {"smiles": "O=C1/C(=C/c2ccc(C(F)(F)F)cc2)COc2ccc(O)cc21", "values": [
      {"measurement": "GI50", "result": 1.53, "unit": "µM"},
      {"measurement": "TGI", "result": 3.04, "unit": "µM"}
    ]},
    {"smiles": "O=C(Nn1c2c(sc1=NC1CC1)C(=O)c1ccccc1C2=O)c1cc2ccc1CCc1ccc(cc1)CC2", "values": [
      {"measurement": "GI50", "result": 2.55, "unit": "µM"},
      {"measurement": "TGI", "result": 7.32, "unit": "µM"}
    ]},
    {"smiles": "COc1cc(/C=N/O)nc(-c2ccccn2)c1", "values": [
      {"measurement": "GI50", "result": 0.307, "unit": "µM"},
      {"measurement": "TGI", "result": 1.7, "unit": "µM"}
    ]},
    {"smiles": "CC1(C)CC(O)CCCCCCOc2c(CN)cccc2NC(=O)c2nc(cnc2N)-c2ccc(cc2)S1(=O)=O", "note": "(stereo unspecified)", "values": [
      {"measurement": "GI50", "result": 0.49, "unit": "µM"},
      {"measurement": "TGI", "result": 2.45, "unit": "µM"}
    ]},
    {"smiles": "COc1cccc2cc(N(C)c3nc(C)nc4ccsc34)ccc12", "values": [
      {"measurement": "GI50", "result": "< 0.01", "unit": "µM"}
    ]},
    {"smiles": "O=C(Nc1ccc([N+](=O)[O-])cc1)c1cc2ccccc2cc1O", "values": [
      {"measurement": "GI50", "result": 0.898, "unit": "µM"},
      {"measurement": "TGI", "result": 4.74, "unit": "µM"}
    ]},
    {"smiles": "C[C@@H]1CCC2[C@@H](C)[C@H](OC(=O)CCC(=O)NCCNC(=O)Cc3cc(=O)oc4cc(N(C)C)ccc34)O[C@@H]3O[C@]4(C)CC[C@@H]1C23OO4", "note": "(stereo partly specified)", "values": [
      {"measurement": "GI50", "result": 13.4, "unit": "µM"},
      {"measurement": "TGI", "result": 59.4, "unit": "µM"}
    ]},
    {"smiles": "O=c1[nH]cc(F)c(=O)[nH]1", "values": [
      {"measurement": "TGI", "result": "> 100 µM and 1560 µM"}
    ]},
    {"smiles": "CC(C)(C)n1cc(-c2ccnc(NCCCNS(=O)(=O)c3ccc(Cl)cc3)c2)c(-c2cccc(O)c2)n1", "values": [
      {"measurement": "GI50", "result": 1.8, "unit": "µM"},
      {"measurement": "TGI", "result": 4.16, "unit": "µM"}
    ]}
  ]
}
